Assay [1] concerns the target T1, FAAH (Homo sapiens, UniProt O00519).
T1 sequence (O00519 1-579): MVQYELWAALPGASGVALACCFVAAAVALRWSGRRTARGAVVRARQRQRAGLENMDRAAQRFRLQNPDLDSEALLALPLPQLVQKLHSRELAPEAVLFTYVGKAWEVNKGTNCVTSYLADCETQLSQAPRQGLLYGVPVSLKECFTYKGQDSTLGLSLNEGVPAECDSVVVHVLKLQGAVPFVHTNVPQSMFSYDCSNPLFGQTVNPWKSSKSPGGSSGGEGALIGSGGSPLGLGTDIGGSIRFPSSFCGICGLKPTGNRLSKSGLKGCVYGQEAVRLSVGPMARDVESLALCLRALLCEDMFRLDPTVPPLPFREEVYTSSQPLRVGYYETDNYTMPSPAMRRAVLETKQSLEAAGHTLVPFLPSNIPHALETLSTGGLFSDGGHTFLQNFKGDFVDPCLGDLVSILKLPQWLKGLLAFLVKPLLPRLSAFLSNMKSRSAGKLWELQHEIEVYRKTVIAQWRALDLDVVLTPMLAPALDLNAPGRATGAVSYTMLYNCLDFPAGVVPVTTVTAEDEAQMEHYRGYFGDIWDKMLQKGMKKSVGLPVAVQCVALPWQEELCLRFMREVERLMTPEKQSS
Nature of the assay: Assay Method 1: FAAH assay, 3H-anandamide hydrolysis in homogenate of cells transfected with human FAAH. Also on record: expressed in transfected cells; crude homogenate (T84 cell pellets named as alternative). The settings on record: cell homogenate, 3H-AEA 80 nM, 1 h at rt, average of results. In kind it is biochemical. How it is done:
A. Transfection of Cells with Human FAAH
(§1) A 10-cm tissue culture dish with a confluent monolayer of SK-N-MC cells was split 2 days (d) prior to transfection. Using sterile technique, the media was removed and the cells were detached from the dish by the addition of trypsin. One fifth of the cells were then placed onto a new 10-cm dish. Cells were grown in a 37° C. incubator with 5% CO2 in Minimal Essential Media Eagle with 10% Fetal Bovine Serum. After 2 d, cells were approximately 80% confluent. These cells were removed from the dish with trypsin and pelleted in a clinical centrifuge. The pellet was re-suspended in 400 μL complete media and transferred to an electroporation cuvette with a 0.4 cm gap between the electrodes. Supercoiled human FAAH cDNA (1 μg) was added to the cells and mixed. The voltage for the electroporation was set at 0.25 kV, and the capacitance was set at 960 After electroporation, the cells were diluted into complete media (10 mL) and plated onto four 10-cm dishes. Because of the variability in the efficiency of electroporation, four different concentrations of cells were plated. The ratios used were 1:20, 1:10, and 1:5, with the remainder of the cells being added to the fourth dish. The cells were allowed to recover for 24 h before adding the selection media (complete media with 600 μg/mL G418). After 10 d, dishes were analyzed for surviving colonies of cells. Dishes with well-isolated colonies were used. Cells from individual colonies were isolated and tested.
(§2) T84 frozen cell pellets or transfected SK-N-MC cells (contents of 1×15 cm culture dishes) were homogenized in 50 mL of FAAH assay buffer (125 mM Tris, 1 mM EDTA, 0.2% Glycerol, 0.02% Triton X-100, 0.4 mM Hepes, pH 9). The assay mixture consisted of 50 μL of the cell homogenate, 10 μL of the test compound, and 40 μL of anandamide [1-^3H-ethanolamine] (^3H-AEA, Perkin-Elmer, 10.3 Ci/mmol), which was added last, for a final tracer concentration of 80 nM. The reaction mixture was incubated at rt for 1 h. During the incubation, 96-well Multiscreen filter plates (catalog number MAFCNOB50; Millipore, Bedford, Mass., USA) were loaded with 25 μL of activated charcoal (Multiscreen column loader, catalog number MACL09625, Millipore) and washed once with 100 μL of MeOH. Also during the incubation, 96-well DYNEX MicroLite plates (catalog number NL510410) were loaded with 100 μL of MicroScint40 (catalog number 6013641, Packard Bioscience, Meriden, Conn., USA). After the 1 h incubation, 60 μL of the reaction mixture were transferred to the charcoal plates, which were then assembled on top of the DYNEX plates using Centrifuge Alignment Frames (catalog number MACF09604, Millipore). The unbound labeled ethanolamine was centrifuged through to the bottom plate (5 min at 2000 rpm), which was preloaded with the scintillant, as described above. The plates were sealed and left at rt for 1 h before counting on a Hewlett Packard TopCount.
(§3) Results for compounds tested in these assays are summarized in Table 1, as an average of results obtained. Compounds were tested in the free base or trifluoroacetic acid salt form. Compounds tested in the trifluoroacetic acid salt form are indicated as such by a “*” designation after the example number. Where activity is shown as greater than (>) a particular value, the value is the solubility limit of the compound in the assay medium or the highest concentration tested in the assay.

The target in assay [2] is T2, rat FAAH (Rattus norvegicus, UniProt P97612).
T2 construct: expressed in transfected cells; crude homogenate
T2 sequence (P97612 1-579): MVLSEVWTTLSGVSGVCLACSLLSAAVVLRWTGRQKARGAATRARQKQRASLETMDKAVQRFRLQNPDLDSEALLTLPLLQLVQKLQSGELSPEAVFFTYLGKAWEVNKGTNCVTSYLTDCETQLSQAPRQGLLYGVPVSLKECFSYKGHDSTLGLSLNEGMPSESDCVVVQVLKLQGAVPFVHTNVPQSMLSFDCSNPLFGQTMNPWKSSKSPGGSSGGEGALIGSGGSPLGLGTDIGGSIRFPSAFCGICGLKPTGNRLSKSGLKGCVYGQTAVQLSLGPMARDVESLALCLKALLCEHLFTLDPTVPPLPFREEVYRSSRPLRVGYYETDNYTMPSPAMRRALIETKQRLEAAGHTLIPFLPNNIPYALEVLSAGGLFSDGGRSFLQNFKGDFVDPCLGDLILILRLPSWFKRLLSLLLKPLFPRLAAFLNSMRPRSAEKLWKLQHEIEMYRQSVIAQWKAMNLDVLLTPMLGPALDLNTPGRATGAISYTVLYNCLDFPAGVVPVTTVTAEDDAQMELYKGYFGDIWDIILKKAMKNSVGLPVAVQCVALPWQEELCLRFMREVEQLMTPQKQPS
Nature of the assay: Assay Method 2: FAAH assay, 3H-anandamide hydrolysis in homogenate of cells transfected with rat FAAH. The class given is biochemical. Conditions: cell homogenate, 3H-AEA 80 nM, 1 h at rt, average of results. How it is done: A. Transfection of Cells with Rat FAAH
as §1, with “rat” for “human”, “960 μF.” for “960”
as §2, §3

As for `O=C(Nc1cccnc1)N1CC(CCOc2ccc3ccccc3n2)C1` [Example 36, 3-[2-(Quinolin-2-yloxy)-ethyl]-azetidine-1-carboxylic acid pyridin-3-ylamide], the figures for the IC50 in assay [1] and in assay [2] were 0.2 µM and 0.43 µM, respectively. For `O=C(Nc1cccnc1)N1CC(CCOc2cc(Cl)cc(Cl)c2)C1` [Example 47, 3-[2-(3,5-Dichloro-phenoxy)-ethyl]-azetidine-1-carboxylic acid pyridin-3-ylamide], in that order: 1 µM and 0.25 µM. For `O=C(Nc1cccnc1)N1CC(COc2ccc3c(c2)CCCC3)C1` [Example 13, 3-(5,6,7,8-Tetrahydro-naphthalen-2-yloxymethyl)-azetidine-1-carboxylic acid pyridin-3-ylamide], in that order: 2.5 µM and 1.7 µM. The corresponding values for `CS(=O)(=O)c1ccc(Oc2cccc(OCC3CCN(C(=O)Nc4cccnc4)C3)c2)cc1` (stereo not drawn) [Example 52, 3-({3-[4-(Methylsulfonyl)phenoxy]phenoxy}methyl)-N-pyridin-3-ylpyrrolidine-1-carboxamide] are 0.1 µM and 1 µM. For `O=C(Nc1cccnc1)N1CC(COc2ccc(-c3ccccc3)cc2)C1` [Example 18, 3-(Biphenyl-4-yloxymethyl)-azetidine-1-carboxylic acid pyridin-3-ylamide], the IC50 in assay [1] and in assay [2] was greater than 10 µM throughout. For the compound `O=C(Nc1cccnc1)N1CC(COc2cccc(Oc3ccc(Cl)cc3)c2)C1` [Example 26, 3-[3-(4-Chloro-phenoxy)-phenoxymethyl]-azetidine-1-carboxylic acid pyridin-3-ylamide], the IC50 was 0.12 µM in assay [1] and 0.2 µM in assay [2].

In the case of `O=C(Nc1cccnc1)N1CC(COc2ccc3ccccc3c2)C1` [Example 20, 3-(Naphthalen-2-yloxymethyl)-azetidine-1-carboxylic acid pyridin-3-ylamide], the IC50 was 1 µM in assay [1] and 1.6 µM in assay [2].

With `O=C(Nc1cccnc1)N1CCC(CCOc2ccc(OC(F)(F)F)cc2)C1` (stereo not drawn) [Example 60, 3-[2-(4-Trifluoromethoxy-phenoxy)-ethyl]-pyrrolidine-1-carboxylic acid pyridin-3-ylamide], the IC50 in assay [1] and in assay [2] was greater than 10 µM each time. Consider `O=C(Nc1cccnc1)N1CC(COc2ccc3cccc(Cl)c3n2)C1` [Example 22, 3-(8-Chloro-quinolin-2-yloxymethyl)-azetidine-1-carboxylic acid pyridin-3-ylamide], for which the IC50 in assay [1] is 1.3 µM; in assay [2], 0.5 µM. The corresponding values for `O=C(Nc1cccnc1)N1CCC(Cc2ccc3c(c2)OC(F)(F)O3)C1` (stereo not drawn) [Example 71, 3-(2,2-Difluoro-benzo[1,3]dioxol-5-ylmethyl)-pyrrolidine-1-carboxylic acid pyridin-3-ylamide] are greater than 10 µM and greater than 10 µM. The corresponding values for `O=C(Nc1cccnc1)N1CCC(CCOc2ccccc2)C1` (stereo not drawn) [Example 54, 3-(2-Phenoxy-ethyl)-pyrrolidine-1-carboxylic acid pyridin-3-ylamide] are greater than 10 µM and greater than 10 µM.

For the compound `O=C(Nc1cnccc1Cl)N1CC(CCOCc2ccc(Cl)cc2)C1` [Example 65, 3-[2-(4-Chloro-benzyloxy)-ethyl]-azetidine-1-carboxylic acid (4-chloro-pyridin-3-yl)-amide], the IC50 in assay [1] is 0.275 µM; in assay [2], 0.739 µM.

Consider `O=C(Nc1cnccc1Cl)N1CC(CCOCc2ccccc2)C1` [Example 70, 3-(2-Benzyloxy-ethyl)-azetidine-1-carboxylic acid (4-chloropyridin-3-yl)-amide], for which, in assay [1], the IC50 was determined as 0.936 µM. `O=C(Nc1cccnc1)N1CC(CCOCc2ccccc2)C1` [Example 69, 3-(2-Benzyloxy-ethyl)-azetidine-1-carboxylic acid pyridin-3-ylamide] returned an IC50 in assay [2] greater than 10 µM. On to `O=C(Nc1cnccc1Cl)N1CCC(CCOc2ccc(OC(F)(F)F)cc2)C1` (stereo not drawn) [Example 62, 3-[2-(4-Trifluoromethoxy-phenoxy)-ethyl]-pyrrolidine-1-carboxylic acid (4-chloro-pyridin-3-yl)-amide], for which the IC50 in assay [1] was 1.3 µM.

In assay [1], `O=C(Nc1cccc2nonc12)N1CCC(Cc2ccc3c(c2)OC(F)(F)O3)C1` (stereo not drawn) [Example 73, N-2,1,3-Benzoxadiazol-4-yl-3-[(2,2-difluoro-1,3-benzodioxol-5-yl)methyl]pyrrolidine-1-carboxamide] displayed an IC50 greater than 10 µM. On to `O=C(Nc1cccnc1)N1CCC(CCOc2ccc(Cl)c(Cl)c2)C1` (stereo not drawn) [Example 53, 3-[2-(3,4-Dichloro-phenoxy)-ethyl]-pyrrolidine-1-carboxylic acid pyridin-3-ylamide], for which, in assay [1], the midpoint of inhibition, the IC50, lay at 6 µM. Same read-out and setting: with `O=C(Nc1cccnc1)N1CC(CCOc2ccc(OC(F)(F)F)cc2)C1` [Example 30, 3-[2-(4-Trifluoromethoxy-phenoxy)-ethyl]-azetidine-1-carboxylic acid pyridin-3-ylamide] the figure was greater than 10 µM.

The record behind these values is patent US8901111B2, “Aryl-substituted heterocyclic urea modulators of fatty acid amide hydrolase” (Janssen Pharmaceutica NV, priority 2009, dated 2014).
